In PubChem BioAssay AID248 (DTP/NCI, 2004):
Values joined by “and” are separate entries in the source; they are usually repeats but may differ in a detail not shown here. Identical values can stand only once. Inconclusive results and toxic doses are left out. Rule as the data show it: active = T/C of 150% or more; inactive = T/C below 125%.

Tested on: L1210 leukemia ip in BDF1 mice, survival T/C
Experiment: NCI In Vivo Anticancer Drug Screen. Data for tumor model L1210 Leukemia (intraperitoneal) in B6D2F1 (BDF1) mice
Conditions: endpoint: mean survival time, higher = longer survival
In short: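 Transplanted-tumor mice were given test agent; controls received vehicle only. Survival readings from the two groups were divided (treated over control).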

[1] = dose: 100.0 mg/kg/injection, schedule: Q01DX001 (ip), vehicle: saline
[2] = dose: 200.0 mg/kg/injection, schedule: Q01DX001 (ip), vehicle: saline
[3] = dose: 400.0 mg/kg/injection, schedule: Q01DX001 (ip), vehicle: saline
[4] = dose: 100.0 mg/kg/injection, schedule: Q01DX001 (ip), vehicle: Klucel (hydroxypropylcellulose) (HPC)
[5] = dose: 200.0 mg/kg/injection, schedule: Q01DX001 (ip), vehicle: Klucel (hydroxypropylcellulose) (HPC)
[6] = dose: 100.0 mg/kg/injection, schedule: Q04DX003 (ip), vehicle: saline
[7] = dose: 200.0 mg/kg/injection, schedule: Q04DX003 (ip), vehicle: saline
[8] = dose: 100.0 mg/kg/injection, schedule: Q04DX003 (ip), vehicle: Klucel (hydroxypropylcellulose) (HPC)
[9] = dose: 200.0 mg/kg/injection, schedule: Q04DX003 (ip), vehicle: Klucel (hydroxypropylcellulose) (HPC)
[10] = dose: 400.0 mg/kg/injection, schedule: Q04DX003 (ip), vehicle: Klucel (hydroxypropylcellulose) (HPC)

Measured: T/C

O=C(CCCC(=O)N/N=C/c1ccccc1[N+](=O)[O-])N/N=C\c1ccccc1[N+](=O)[O-]
inactive: dose: 50.0 mg/kg/injection, schedule: Q01DX001 (ip), vehicle: saline 112 % of control | [1] 106 % of control | [2] 101 % of control | [3] 101 % of control

CCCC(OC(C)=O)C(C)[N+](=O)[O-] (stereo not drawn)
inactive: dose: 50.0 mg/kg/injection, schedule: Q01DX001 (ip), vehicle: saline with Tween-80 96 % of control | dose: 100.0 mg/kg/injection, schedule: Q01DX001 (ip), vehicle: saline with Tween-80 92 % of control | dose: 200.0 mg/kg/injection, schedule: Q01DX001 (ip), vehicle: saline with Tween-80 103 % of control

CCOC(=O)c1cnc(N)s1
inactive: [4] 105 % of control | [5] 98 % of control | dose: 400.0 mg/kg/injection, schedule: Q01DX001 (ip), vehicle: Klucel (hydroxypropylcellulose) (HPC) 102 % of control

CCOC(=O)NC(C)NC(=O)OCC
inactive: [1] 107 % of control | [2] 101 % of control | [3] 97 % of control

CC(=O)NCCCC(=O)O
inactive: [6] 101 % of control | [7] 103 % of control | dose: 400.0 mg/kg/injection, schedule: Q04DX003 (ip), vehicle: saline 100 % of control

C[N+](C)(C)CCCOC(=O)C1C2CC3OC(=O)C1C3C2 (stereo not drawn)
inactive: [6] 101 % of control | [7] 96 % of control

O=C(CC(=O)c1ccccc1)Cc1ccccc1.O=C(CC(=O)c1ccccc1)Cc1ccccc1.[Cu]
inactive: [8] 94 % of control | [9] 97 % of control | [10] 104 % of control

CCC[CH2][Pb]([CH2]CCC)([CH2]CCC)[O]C(=O)CCl
inactive: dose: 1.56 mg/kg/injection, schedule: Q01DX009 (ip), vehicle: Klucel (hydroxypropylcellulose) (HPC) 98 % of control | dose: 3.13 mg/kg/injection, schedule: Q01DX009 (ip), vehicle: Klucel (hydroxypropylcellulose) (HPC) 104 % of control | dose: 6.25 mg/kg/injection, schedule: Q01DX009 (ip), vehicle: Klucel (hydroxypropylcellulose) (HPC) 94 % of control and 98 % of control | dose: 12.5 mg/kg/injection, schedule: Q04DX003 (ip), vehicle: Klucel (hydroxypropylcellulose) (HPC) 101 % of control | dose: 25.0 mg/kg/injection, schedule: Q04DX003 (ip), vehicle: Klucel (hydroxypropylcellulose) (HPC) 100 % of control

Cc1ccc(NC(=O)CCc2ccc(N3C(N)=NC(N)=NC3(C)C)cc2)cc1S(=O)(=O)F
inactive: [4] 90 % of control | [5] 108 % of control

NC(=O)c1[nH]cnc1N
inactive: [1] 97 % of control | [2] 101 % of control | [3] 97 % of control

Cc1[nH]c2ccccc2c1/C=C/c1c[nH]c2ccccc12
inactive: dose: 50.0 mg/kg/injection, schedule: Q01DX001 (ip), vehicle: carboxymethylcellulose (CMC) 93 % of control | dose: 100.0 mg/kg/injection, schedule: Q01DX001 (ip), vehicle: carboxymethylcellulose (CMC) 91 % of control | dose: 200.0 mg/kg/injection, schedule: Q01DX001 (ip), vehicle: carboxymethylcellulose (CMC) 98 % of control | dose: 400.0 mg/kg/injection, schedule: Q01DX001 (ip), vehicle: carboxymethylcellulose (CMC) 91 % of control

COC(=O)Nc1cccc2c1-c1ccccc1C2=O
inactive: dose: 50.0 mg/kg/injection, schedule: Q04DX003 (ip), vehicle: Klucel (hydroxypropylcellulose) (HPC) 95 % of control | [8] 95 % of control | [9] 100 % of control

COc1c2ccoc2cc2oc(C)cc(=O)c12
inactive: dose: 37.5 mg/kg/injection, schedule: Q01DX001 (ip), vehicle: carboxymethylcellulose (CMC) 103 % of control | dose: 75.0 mg/kg/injection, schedule: Q01DX001 (ip), vehicle: carboxymethylcellulose (CMC) 100 % of control | dose: 150.0 mg/kg/injection, schedule: Q01DX001 (ip), vehicle: carboxymethylcellulose (CMC) 108 % of control

CCOc1ccc2[nH]c(=S)sc2c1
inactive: dose: 50.0 mg/kg/injection, schedule: Q01DX009 (ip), vehicle: Klucel (hydroxypropylcellulose) (HPC) 93 % of control | dose: 100.0 mg/kg/injection, schedule: Q01DX009 (ip), vehicle: Klucel (hydroxypropylcellulose) (HPC) 102 % of control | [8] 105 % of control | dose: 200.0 mg/kg/injection, schedule: Q01DX009 (ip), vehicle: Klucel (hydroxypropylcellulose) (HPC) 86 % of control | [9] 89 % of control | [10] 100 % of control

COc1ccccc1OCCOCCNC1CC2CCC1(C)C2(C)C (stereo not drawn)
inactive: [8] 88 % of control
